Experimental data reported in US9670227B2, “Thienopyrimidine derivatives, a process for their preparation and pharmaceutical compositions containing them” (LES LABORATOIRES SERVIER, priority 2013, dated 2017).
Like-named read-outs stand apart in the source and are kept apart here. Blank lines part the entries; values can stand above or below the molecule they belong to.

Target: Mcl-1 protein (UniProtKB primary accession number: Q07820) (Homo sapiens, UniProt Q07820)
Assay: Inhibition of Mcl-1 by fluorescence polarisation, Method 1
Format: binding
Details: for IC50: read-out: IC50 (M) Mcl-1 FP; for percentage fluorescence polarisation inhibition, Mcl-1 FP: partial inhibitors, @ 10 uM test compound
Method in brief: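 FP readout of relative binding potency. Mcl-1 5 nM final, fluorescein-labelled ligand 1 nM final; buffer 10 mM HEPES, 150 mM NaCl, 0.05% Tween 20, pH 7.4; 11-pt dilution series, 5% DMSO final.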

[1] = fluorescence polarisation test, Method 2 values are underlined in the patent (underlining not visible here)
[2] = fluorescence polarisation, Method 1, or Method 2
[3] = fluorescence polarisation test, Method 1, or Method 2 where the value is underlined (underlining not visible)

Mcl-1 protein, sequence (Q07820 whole entry): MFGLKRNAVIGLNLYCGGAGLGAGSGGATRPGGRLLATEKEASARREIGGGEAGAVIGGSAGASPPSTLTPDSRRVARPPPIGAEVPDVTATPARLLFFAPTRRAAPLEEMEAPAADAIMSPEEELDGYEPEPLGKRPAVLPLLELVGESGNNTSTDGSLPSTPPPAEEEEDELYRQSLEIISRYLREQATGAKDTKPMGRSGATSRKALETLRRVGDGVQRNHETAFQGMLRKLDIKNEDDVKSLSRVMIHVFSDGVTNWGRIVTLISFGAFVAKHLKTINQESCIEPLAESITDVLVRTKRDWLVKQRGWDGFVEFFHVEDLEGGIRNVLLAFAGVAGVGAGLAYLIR

percentage fluorescence polarisation inhibition (Mcl-1 FP), partial inhibitors (test compound at 10 uM, Method 1, or Method 2 where the value is underlined (underlining not visible)): 29.4% @ 10 uM
SMILES: CCCCCCCCOC(=O)[C@@H](Cc1ccccc1OC)Oc1ncnc2sc(-c3ccc(F)cc3)c(-c3ccc(OCCN4CCN(C)CC4)c(Cl)c3C)c12 [Example 850, octyl (2R)-2-{[(5Sa)-5-{3-chloro-2-methyl-4-[2-(4-methylpiperazin-1-yl)ethoxy]phenyl}-6-(4-fluorophenyl)thieno[2,3-d]pyrimidin-4-yl]oxy}-3-(2-methoxyphenyl)propanoate]

IC50 [3]: 2.75e-06 M
SMILES: CCOC(=O)C(Cc1ccccc1OCc1ccnc(-c2ccccc2F)n1)Oc1ncnc2sc(-c3ccc(F)cc3)c(-c3ccc(OCCN4CCN(C)CC4)c(Cl)c3C)c12 [Example 797, ethyl (2R)-2-{[(5Sa)-5-{3-chloro-2-methyl-4-[2-(4-methylpiperazin-1-yl)ethoxy]phenyl}-6-(4-fluorophenyl)thieno[2,3-d]pyrimidin-4-yl]oxy}-3-(2-{[2-(2-fluorophenyl)pyrimidin-4-yl]methoxy}phenyl)propanoate]

IC50 [3]: 3.82e-08 M
SMILES: Cc1oc(=O)oc1COC(=O)C(Cc1ccccc1OCc1ccnn1C(C)(C)C)Oc1ncnc2sc(-c3cccc(F)c3F)c(-c3ccc(OCCN(C)C)c(Cl)c3C)c12 [Example 824, (5-methyl-2-oxo-1,3-dioxol-4-yl)methyl (2R)-3-{2-[(1-tert-butyl-1H-pyrazol-5-yl)methoxy]phenyl}-2-{[(5Sa)-5-{3-chloro-4-[2-(dimethylamino)ethoxy]-2-methylphenyl}-6-(2,3-difluorophenyl)thieno[2,3-d]pyrimidin-4-yl]oxy}propanoate]

IC50 [2]: 2.8e-05 M
SMILES: CCc1sc2ncnc(O[C@@H](Cc3ccccc3OC)C(=O)O)c2c1-c1ccc(O)c(Cl)c1C (single isomer, unassigned) [Example 680]

IC50 [2]: 7.26e-09 M
SMILES: Cc1c(-c2c(-c3ccc(OCc4ccn(C)n4)cc3)sc3ncnc(OC(Cc4ccccc4OCC(F)(F)F)C(=O)O)c23)ccc(OCCN2CCN(C)CC2)c1Cl [Example 780, (2R)-2-[((5Sa)-5-{3-chloro-2-methyl-4-[2-(4-methylpiperazin-1-yl)ethoxy]phenyl}-6-{4-[(1-methyl-1H-pyrazol-3-yl)methoxy]phenyl}thieno[2,3-d]pyrimidin-4-yl)oxy]-3-[2-(2,2,2-trifluoroethoxy)phenyl]propanoic acid]

IC50 [3]: 1.67e-06 M
SMILES: COc1ccccc1CC(Oc1ncnc2sc(-c3ccc(F)cc3)c(-c3ccc(OCCN4CCN(C)CC4)c(Cl)c3C)c12)C(=O)OCC(=O)N(C)C [Example 844, 2-(dimethylamino)-2-oxoethyl (2R)-2-{[(5Sa)-5-{3-chloro-2-methyl-4-[2-(4-methylpiperazin-1-yl)ethoxy]phenyl}-6-(4-fluorophenyl)thieno[2,3-d]pyrimidin-4-yl]oxy}-3-(2-methoxyphenyl)propanoate]

IC50 [3]: 3.61e-07 M
SMILES: Cc1c(-c2c(-c3ccc(F)cc3)sc3ncnc(OC(Cc4ccccc4OCc4ccnn4C(C)(C)C)C(=O)OCOC(=O)C(C)(C)C)c23)ccc(OCCN(C)C)c1Cl [Example 821, {[(2R)-3-{2-[(1-tert-butyl-1H-pyrazol-5-yl)methoxy]phenyl}-2-{[(5Sa)-5-{3-chloro-4-[2-(dimethylamino)ethoxy]-2-methylphenyl}-6-(4-fluorophenyl)thieno[2,3-d]pyrimidin-4-yl]oxy}propanoyl]oxy}methyl 2,2-dimethylpropanoate]

IC50 [2]: 1.4e-08 M
SMILES: Cc1c(-c2c(-c3ccc(F)cc3)sc3ncnc(OC(Cc4ccccc4OCC4CCCO4)C(=O)O)c23)ccc(OCCN2CCOCC2)c1Cl [Example 648, (2R)-2-{[(5Sa)-5-{3-chloro-2-methyl-4-[2-(morpholin-4-yl)ethoxy]phenyl}-6-(4-fluorophenyl)thieno[2,3-d]pyrimidin-4-yl]oxy}-3-{2-[(2R)-tetrahydrofuran-2-ylmethoxy]phenyl}propanoic acid]

Further lines, the molecule ahead of its results:

SMILES: CCn1nccc1COc1ccccc1CC(Oc1ncnc2sc(-c3ccc(F)cc3)c(-c3ccc(OCCN4CCN(C)CC4)c(Cl)c3C)c12)C(=O)O [Example 76, (2R)-2-{[(5Sa)-5-{3-chloro-2-methyl-4-[2-(4-methylpiperazin-1-yl)ethoxy]phenyl}-6-(4-fluorophenyl)thieno[2,3-d]pyrimidin-4-yl]oxy}-3-{2-[(1-ethyl-1H-pyrazol-5-yl)methoxy]phenyl}propanoic acid]
IC50 [1]: 1.6e-08 M

SMILES: Cc1c(-c2c(-c3ccc(F)cc3)sc3ncnc(OC(Cc4ccccc4)C(=O)O)c23)ccc(OCCN2CCN(C)CC2)c1Cl [Example 498, (2R)-2-{[(5Sa)-5-{3-chloro-2-methyl-4-[2-(4-methylpiperazin-1-yl)ethoxy]phenyl}-6-(4-fluorophenyl)thieno[2,3-d]pyrimidin-4-yl]oxy}-3-phenylpropanoic acid]
IC50 [2]: 7.4e-08 M

SMILES: CCOC(=O)[C@@H](Cc1ccccc1OCc1ccnc(OC)n1)Oc1ncnc2sc(-c3ccc(F)cc3)c(-c3ccc(OCCN4CCN(C)CC4)c(Cl)c3C)c12 [Example 626, ethyl (2R)-2-{[(5Sa)-5-{3-chloro-2-methyl-4-[2-(4-methylpiperazin-1-yl)ethoxy]phenyl}-6-(4-fluorophenyl)thieno[2,3-d]pyrimidin-4-yl]oxy}-3-{2-[(2-methoxypyrimidin-4-yl)methoxy]phenyl}propanoate]
percentage fluorescence polarisation inhibition, Mcl-1 FP: 39.45% @ 10 uM

SMILES: CCCCn1nccc1COc1ccccc1CC(Oc1ncnc2sc(-c3ccc(N)nc3)c(-c3ccc(OCCN4CCN(C)CC4)c(Cl)c3C)c12)C(=O)O [Example 618, (2R)-2-{[6-(6-aminopyridin-3-yl)-(5Sa)-5-{3-chloro-2-methyl-4-[2-(4-methylpiperazin-1-yl)ethoxy]phenyl}thieno[2,3-d]pyrimidin-4-yl]oxy}-3-{2-[(1-butyl-1H-pyrazol-5-yl)methoxy]phenyl}propanoic acid]
IC50 [2]: 5.6e-09 M

SMILES: CCc1sc2ncnc(OC(Cc3ccccc3)C(=O)O)c2c1-c1cc(CN2CCN(C)CC2)c(O)c(Cl)c1C [Example 430, (2R)-2-[((5Sa)-5-{3-chloro-4-hydroxy-2-methyl-5-[(4-methylpiperazin-1-yl)methyl]phenyl}-6-ethylthieno[2,3-d]pyrimidin-4-yl)oxy]-3-phenylpropanoic acid]
IC50 [2]: 1.4e-07 M

SMILES: COc1ncc(-c2ccsc2)c(COc2ccccc2CC(Oc2ncnc3sc(-c4ccc(F)cc4)c(-c4ccc(OCCN5CCN(C)CC5)c(Cl)c4C)c23)C(=O)O)n1 [Example 100, (2R)-2-{[(5Sa)-5-{3-chloro-2-methyl-4-[2-(4-methylpiperazin-1-yl)ethoxy]phenyl}-6-(4-fluorophenyl)thieno[2,3-d]pyrimidin-4-yl]oxy}-3-(2-{[2-methoxy-5-(thiophen-3-yl)pyrimidin-4-yl]methoxy}phenyl)propanoic acid]
IC50 [1]: 1.2e-08 M

SMILES: Cc1c(-c2c(-c3ccc(F)o3)sc3ncnc(OC(Cc4ccccc4OCc4ccnc(N5CCOCC5)n4)C(=O)O)c23)ccc(OCCN2CCN(C)CC2)c1Cl [Example 175, (2R)-2-{[(5Sa)-5-{3-chloro-2-methyl-4-[2-(4-methylpiperazin-1-yl)ethoxy]phenyl}-6-(5-fluorofuran-2-yl)thieno[2,3-d]pyrimidin-4-yl]oxy}-3-(2-{[2-(morpholin-4-yl)pyrimidin-4-yl]methoxy}phenyl)propanoic acid]
IC50 [1]: 3.9e-09 M

SMILES: CCOC(=O)[C@@H](Cc1ccccc1OC[C@H]1CCCO1)Oc1ncnc2sc(-c3ccc(F)cc3)c(-c3ccc(OCCN4CCOCC4)c(Cl)c3C)c12 [Example 629, ethyl (2R)-2-{[(5Sa)-5-{3-chloro-2-methyl-4-[2-(morpholin-4-yl)ethoxy]phenyl}-6-(4-fluorophenyl)thieno[2,3-d]pyrimidin-4-yl]oxy}-3-{2-[(2R)-tetrahydrofuran-2-ylmethoxy]phenyl}propanoate]
percentage fluorescence polarisation inhibition, Mcl-1 FP: 14.95% @ 10 uM

SMILES: CC#Cc1sc2ncnc(O[C@H](Cc3ccccc3OC)C(=O)O)c2c1-c1ccc(CCCN(C)C)c(Cl)c1C (single isomer, unassigned) [Example 478]
IC50 [2]: 5.3e-07 M

SMILES: Cc1c(-c2c(-c3ccc(F)cc3)sc3ncnc(OC(Cc4ccccc4OCc4cncn4C)C(=O)O)c23)ccc(OCCN2CCN(C)CC2)c1Cl [Example 92, (2R)-2-{[(5Sa)-5-{3-chloro-2-methyl-4-[2-(4-methylpiperazin-1-yl)ethoxy]phenyl}-6-(4-fluorophenyl)thieno[2,3-d]pyrimidin-4-yl]oxy}-3-{2-[(1-methyl-1H-imidazol-5-yl)methoxy]phenyl}propanoic acid]
IC50 [1]: 1.2e-08 M

SMILES: Cc1c(-c2c(-c3ccc(F)cc3)sc3ncnc(OC(Cc4ccccc4OCc4nncn4C)C(=O)O)c23)ccc(OCCN2CCN(C)CC2)c1Cl [Example 102, (2R)-2-{[(5Sa)-5-{3-chloro-2-methyl-4-[2-(4-methylpiperazin-1-yl)ethoxy]phenyl}-6-(4-fluorophenyl)thieno[2,3-d]pyrimidin-4-yl]oxy}-3-{2-[(4-methyl-4H-1,2,4-triazol-3-yl)methoxy]phenyl}propanoic acid]
IC50 [1]: 9.5e-09 M

SMILES: CCc1sc2ncnc(OC(Cc3ccccc3)C(=O)O)c2c1-c1ccc(OCCCn2ccnc2)c(Cl)c1C [Example 403, (2R)-2-[((5Sa)-5-{3-chloro-4-[3-(1H-imidazol-1-yl)propoxy]-2-methylphenyl}-6-ethylthieno[2,3-d]pyrimidin-4-yl)oxy]-3-phenylpropanoic acid]
IC50 [2]: 1.4e-08 M

SMILES: CCc1sc2ncnc(OC(Cc3ccccc3)C(=O)O)c2c1-c1cc(Br)c(O)c(Cl)c1C [Example 427, (2R)-2-{[(5Sa)-5-(5-bromo-3-chloro-4-hydroxy-2-methylphenyl)-6-ethylthieno[2,3-d]pyrimidin-4-yl]oxy}-3-phenylpropanoic acid]
IC50 [2]: 4.7e-09 M

SMILES: COc1ccccc1CC(Oc1ncnc2sc(-c3ccc(C(N)=O)o3)c(-c3ccc(OCCN4CCN(C)CC4)c(Cl)c3C)c12)C(=O)O [Example 581, (2R)-2-{[6-(5-carbamoylfuran-2-yl)-(5Sa)-5-{3-chloro-2-methyl-4-[2-(4-methylpiperazin-1-yl)ethoxy]phenyl}thieno[2,3-d]pyrimidin-4-yl]oxy}-3-(2-methoxyphenyl)propanoic acid]
IC50 [2]: 4.2e-07 M
